Measurements: patent US20070003636A1, “Statins (HMG-COA reductase inhibitors) as a novel type of immunomodulator, immunosuppressor and anti-inflammatory agent” (priority 2003, published 2007)

Columns and labels:
CRP = details: cited from earlier work
CD40 = assay: IFN-γ induced CD40 expression on vascular endothelial cells (Western blot); format: cell-based, human; details: ECs; for CD40 expression with co-treatment by IFN-γ and statin: IFN-γ 500 U/ml, 24 hrs, Western blotting
Source text: Cell isolation and culture. […] Human vascular smooth muscle (SMCs) cells were isolated from human saphenous veins and mammary arteries by explant outgrowth, and cultured in DMEM (BioWhittaker) supplemented with 1% L-glutamine (BioWhittaker), 1% penicillin/streptomycin, and 10% FCS. Both cell types were subcultured following trypsinization (0.5% trypsin (Worthington Biochemicals)/0.2% EDTA (EM Science)) in P100-culture dishes (Becton Dickinson).
Western blots analysis. Cells were harvested in ice-cold RIPA solubilization buffer, and total amounts of protein were determined using a bicinchoninic acid quantification assay (Pierce, Rockford, Ill.). Twenty μg of total protein/lane were separated by SDS/PAGE under reducing conditions and blotted to polyvinylidene difluoride membranes (Millipore Corp., Bedford, Mass.) using a semidry blotting apparatus (Bio-Rad, Hercules, Calif.). Blots were blocked overnight in 5% defatted dry milk/PBS/0.1% Tween, and then incubated for 1 hour at room temperature with primary antibody (1:40) (rabbit […] anti-CD40 Santa Cruz, San Diego, Calif.), or mouse monoclonal anti-human […] (1:5000) (Pharmingen) for control of loading. This was followed by a 1 hour incubation with secondary peroxidase-conjugated antibody (1:10,000), (Jackson Immunoresearch, West Grove, Pa.). […] Immunoreactivity was detected using the enhanced chemiluminescence detection method according to the manufacturer's instructions. (Amersham, Dübendorf Switzerland), and subsequent exposure of the membranes to x-ray film. Analysis of quantification of detection was performed using AIDA software.

MHC class II = details: ECs, IFN-γ 500 U/ml 48 hrs; compared among Atorvastatin, Lovastatin, Pravastatin
Description: Cell isolation and culture. […] Flow cytometry. […] Data were analyzed using […] software (Becton Dickinson).

CD40 mediated pathways = assay: CD40L induced cytokine release (IL-6, IL-8, MCP-1) from ECs, ELISA; format: cell-based, human; details: added to statin and CD154
Description: Cytokines assay. […] Experiments were performed in the presence of polymyxin B (1 μg/ml). Antibody binding was detected by adding substrate (R&D), and absorbance measured at 450 nm using a Dynatech plate reader. The amount of IL-6, IL-8 and MCP-1 detected was calculated from a standard curve prepared with the recombinant protein. Samples were assayed in duplicates.
To investigate the functional consequences of inhibition of CD40 expression by statins on Endothelial Cells activation by CD40L, secreted cytokines were analyzed such as Interleukin-6 (IL-6), interleukin-8 (IL-8), macrophages chemoattractant protein-1 (MCP-1). Addition of an anti-CD40LmAb blocked the induction of all three secreted cytokines in response to CD40 ligation.

Molecule: CC(C)c1c(C(=O)Nc2ccccc2)c(-c2ccccc2)c(-c2ccc(F)cc2)n1CC[C@@H](O)C[C@@H](O)CC(=O)O [Atorvastatin]
- CRP levels (CRP; 80 mg/day): decrease in CRP levels
- effect on biological markers of inflammation (CRP; in vivo): dose-dependent
- effect on IFN-γ induced CD40 in the presence of L-mevalonate (CD40): markedly reduced
- IFN-γ induction of CD40, dose dependence (CD40; IFN-γ 500 U/ml 24 hrs): repressed this induction of CD40 in a dose-dependant manner
- concentration range over which effect on CD40 was observed (CD40; IFN-γ 500 U/ml 24 hrs): 0.08 to 5 µM
- CD40 expression with co-treatment by IFN-γ and statin (CD40): decreased
- CD40 expression, treatment with statin alone (CD40; without IFN-γ): had an effect on CD40 expression
- potency as MHC class II repressor (MHC class II): most powerful MHC class II repressor

Molecule: CC[C@H](C)C(=O)O[C@H]1C[C@@H](C)C=C2C=C[C@H](C)[C@H](CC[C@@H]3C[C@@H](O)CC(=O)O3)[C@H]21 [lovastatin, Lovastatin]
- CD40 expression with co-treatment by IFN-γ and statin (CD40): decreased

Molecule: L-mevalonate
- reversal of statin effect on cytokine secretion (CD40 mediated pathways): significantly reverses the process
